Where two headings read alike, the source gives them in different places.
Columns and labels:
Enterovirus 71 = experiment: Antiviral CPE assay in mammalian cell culture; format: cell-based; conditions: Enterovirus A, EV71, prevention of viral CPE, read-out: inhibition capacity (IC50) EV71
coxsackie B 4 virus = experiment: Antiviral CPE assay in mammalian cell culture; format: cell-based; conditions: Enterovirus B
PI4KIIIβ = PI4KIIIβ (Homo sapiens, UniProt Q9UBF8); experiment: Phosphatidyl inositol kinase inhibition assay (ADP-Glo Kinase Assay); format: biochemical
PI4KIIIβ, sequence (Q9UBF8 whole entry): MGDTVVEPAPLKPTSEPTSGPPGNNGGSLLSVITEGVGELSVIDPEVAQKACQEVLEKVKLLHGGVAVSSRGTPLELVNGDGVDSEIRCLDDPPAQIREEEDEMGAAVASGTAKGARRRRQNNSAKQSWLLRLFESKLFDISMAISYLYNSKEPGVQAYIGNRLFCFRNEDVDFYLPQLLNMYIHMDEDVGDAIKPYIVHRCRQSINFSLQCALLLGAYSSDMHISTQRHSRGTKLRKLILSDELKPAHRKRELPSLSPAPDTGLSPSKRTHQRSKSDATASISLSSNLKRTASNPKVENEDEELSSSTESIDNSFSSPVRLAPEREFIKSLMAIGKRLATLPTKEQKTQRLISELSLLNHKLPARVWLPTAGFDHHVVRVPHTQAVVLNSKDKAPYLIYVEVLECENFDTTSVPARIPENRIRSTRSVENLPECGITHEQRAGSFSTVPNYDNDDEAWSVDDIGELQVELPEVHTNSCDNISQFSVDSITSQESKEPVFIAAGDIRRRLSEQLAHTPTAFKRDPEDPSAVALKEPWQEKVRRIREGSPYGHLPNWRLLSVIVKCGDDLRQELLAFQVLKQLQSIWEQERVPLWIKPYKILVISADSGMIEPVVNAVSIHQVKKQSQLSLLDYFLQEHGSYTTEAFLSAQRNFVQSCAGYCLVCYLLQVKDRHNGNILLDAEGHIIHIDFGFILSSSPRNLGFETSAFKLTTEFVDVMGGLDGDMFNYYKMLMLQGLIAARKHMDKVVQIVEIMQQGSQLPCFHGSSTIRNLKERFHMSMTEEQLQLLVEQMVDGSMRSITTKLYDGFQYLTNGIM
Protocol: (§1) Phosphatidyl Inositol Kinase Inhibition Assay Inhibition of PI4 kinases was studied using the ADP-Glo™ Kinase Assay which is a luminescent kinase assay that measures ADP formed from a kinase reaction; ADP is converted into ATP, which is converted into light by Ultra-Glo™ Luciferase. The assay is performed in two steps; first, after the kinase reaction, an equal volume of ADP-Glo™ Reagent is added to terminate the kinase reaction and deplete the remaining ATP. In the second step, the Kinase Detection Reagent is added, which simultaneously converts ADP to ATP and allows the newly synthesized ATP to be measured using a coupled luciferase/luciferin reaction. The luminescent signal produced is proportional to the activity of the kinase.

PI4KIIIα = PI4KIIIα (Homo sapiens, UniProt P42356); experiment: as above; format: biochemical
PI4KIIIα, sequence (P42356 whole entry): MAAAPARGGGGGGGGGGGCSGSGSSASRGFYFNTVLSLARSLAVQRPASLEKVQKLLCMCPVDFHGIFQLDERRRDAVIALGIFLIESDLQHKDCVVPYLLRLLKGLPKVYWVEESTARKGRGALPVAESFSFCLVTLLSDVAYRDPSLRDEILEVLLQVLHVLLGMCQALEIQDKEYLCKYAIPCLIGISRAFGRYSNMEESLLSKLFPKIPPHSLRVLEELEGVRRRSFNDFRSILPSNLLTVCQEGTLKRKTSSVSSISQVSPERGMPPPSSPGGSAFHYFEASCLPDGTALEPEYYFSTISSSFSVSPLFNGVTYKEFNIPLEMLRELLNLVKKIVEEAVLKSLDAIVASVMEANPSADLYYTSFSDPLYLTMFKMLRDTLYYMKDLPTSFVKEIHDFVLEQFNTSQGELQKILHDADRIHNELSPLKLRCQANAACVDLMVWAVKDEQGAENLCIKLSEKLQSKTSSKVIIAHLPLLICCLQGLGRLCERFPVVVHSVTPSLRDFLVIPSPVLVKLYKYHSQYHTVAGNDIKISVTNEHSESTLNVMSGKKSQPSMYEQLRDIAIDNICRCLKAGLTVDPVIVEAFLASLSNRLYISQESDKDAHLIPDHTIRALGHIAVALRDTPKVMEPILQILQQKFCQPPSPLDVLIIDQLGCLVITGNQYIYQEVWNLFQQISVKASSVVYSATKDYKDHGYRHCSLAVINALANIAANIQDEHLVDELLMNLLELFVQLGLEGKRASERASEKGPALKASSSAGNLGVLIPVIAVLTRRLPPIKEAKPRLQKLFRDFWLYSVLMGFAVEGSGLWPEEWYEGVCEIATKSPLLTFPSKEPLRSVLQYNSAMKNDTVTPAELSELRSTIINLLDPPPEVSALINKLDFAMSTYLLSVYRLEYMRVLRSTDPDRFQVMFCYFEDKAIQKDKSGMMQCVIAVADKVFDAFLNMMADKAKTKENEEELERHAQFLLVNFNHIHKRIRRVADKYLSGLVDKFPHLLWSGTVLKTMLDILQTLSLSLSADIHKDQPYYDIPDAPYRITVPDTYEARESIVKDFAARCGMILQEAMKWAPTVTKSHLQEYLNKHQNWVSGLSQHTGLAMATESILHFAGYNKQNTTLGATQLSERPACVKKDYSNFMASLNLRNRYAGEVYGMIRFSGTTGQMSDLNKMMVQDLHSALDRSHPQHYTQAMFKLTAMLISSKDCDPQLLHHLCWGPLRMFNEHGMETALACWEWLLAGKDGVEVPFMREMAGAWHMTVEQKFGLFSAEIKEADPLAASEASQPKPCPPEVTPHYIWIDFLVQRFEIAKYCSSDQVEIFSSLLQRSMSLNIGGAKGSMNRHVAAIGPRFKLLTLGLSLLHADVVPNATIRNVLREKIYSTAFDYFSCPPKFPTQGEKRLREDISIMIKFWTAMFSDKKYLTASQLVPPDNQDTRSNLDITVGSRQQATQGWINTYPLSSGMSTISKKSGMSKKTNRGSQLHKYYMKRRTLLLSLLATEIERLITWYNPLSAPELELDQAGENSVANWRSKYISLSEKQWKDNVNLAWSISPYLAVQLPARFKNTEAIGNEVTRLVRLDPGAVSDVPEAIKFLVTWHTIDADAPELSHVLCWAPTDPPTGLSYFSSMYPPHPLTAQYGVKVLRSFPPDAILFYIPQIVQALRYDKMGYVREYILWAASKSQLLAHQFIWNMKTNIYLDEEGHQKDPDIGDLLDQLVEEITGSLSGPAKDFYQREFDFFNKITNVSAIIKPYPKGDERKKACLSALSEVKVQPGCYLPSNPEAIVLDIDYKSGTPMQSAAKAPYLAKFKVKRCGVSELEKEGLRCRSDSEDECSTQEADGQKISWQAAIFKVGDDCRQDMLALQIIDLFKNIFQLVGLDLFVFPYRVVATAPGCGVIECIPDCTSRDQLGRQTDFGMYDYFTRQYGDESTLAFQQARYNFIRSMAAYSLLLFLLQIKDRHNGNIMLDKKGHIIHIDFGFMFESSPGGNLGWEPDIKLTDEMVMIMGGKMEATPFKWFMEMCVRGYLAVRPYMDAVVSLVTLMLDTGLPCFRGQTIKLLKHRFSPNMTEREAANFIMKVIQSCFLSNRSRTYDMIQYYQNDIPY
Protocol: as §1

Enterovirus 6 = experiment: Antiviral CPE assay in mammalian cell culture; format: cell-based; conditions: prevention of viral CPE, read-out: inhibition capacity (IC50) EV6
Enterovirus 68 = experiment: Antiviral CPE assay in mammalian cell culture; format: cell-based; conditions: Enterovirus D
PI3Kα = PI3Kα (Homo sapiens, UniProt P42336); experiment: Phosphatidyl inositol kinase inhibition assay (HTRF); format: biochemical
PI3Kα, sequence (P42336 whole entry, species assumed): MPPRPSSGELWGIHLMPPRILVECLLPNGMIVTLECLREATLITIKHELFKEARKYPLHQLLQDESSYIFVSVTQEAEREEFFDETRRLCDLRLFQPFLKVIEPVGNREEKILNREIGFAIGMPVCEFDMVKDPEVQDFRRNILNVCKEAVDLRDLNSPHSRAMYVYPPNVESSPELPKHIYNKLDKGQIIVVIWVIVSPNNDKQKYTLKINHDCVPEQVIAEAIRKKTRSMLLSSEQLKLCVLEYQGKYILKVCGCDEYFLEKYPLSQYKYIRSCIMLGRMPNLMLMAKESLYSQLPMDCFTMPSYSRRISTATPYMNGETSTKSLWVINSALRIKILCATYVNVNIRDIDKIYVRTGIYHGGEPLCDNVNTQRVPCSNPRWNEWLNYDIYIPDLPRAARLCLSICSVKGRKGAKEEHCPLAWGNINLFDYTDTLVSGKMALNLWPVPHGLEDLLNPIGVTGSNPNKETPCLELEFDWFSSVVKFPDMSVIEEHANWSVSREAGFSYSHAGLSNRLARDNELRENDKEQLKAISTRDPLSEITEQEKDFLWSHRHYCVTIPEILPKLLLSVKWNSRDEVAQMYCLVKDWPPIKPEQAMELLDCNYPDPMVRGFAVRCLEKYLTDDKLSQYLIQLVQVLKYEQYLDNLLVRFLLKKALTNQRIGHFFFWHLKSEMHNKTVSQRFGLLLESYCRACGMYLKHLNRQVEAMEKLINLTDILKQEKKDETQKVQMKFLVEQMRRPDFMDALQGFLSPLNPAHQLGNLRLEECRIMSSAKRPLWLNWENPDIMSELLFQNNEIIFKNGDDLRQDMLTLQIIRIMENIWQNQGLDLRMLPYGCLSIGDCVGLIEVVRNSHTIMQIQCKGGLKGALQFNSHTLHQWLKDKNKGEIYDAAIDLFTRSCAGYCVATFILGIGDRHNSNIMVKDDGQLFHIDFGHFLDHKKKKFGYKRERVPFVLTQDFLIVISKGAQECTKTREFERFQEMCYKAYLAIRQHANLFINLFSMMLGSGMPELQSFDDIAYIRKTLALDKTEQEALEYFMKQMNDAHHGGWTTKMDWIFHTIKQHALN
PI3Kα, sequence (P27986 whole entry partner, species assumed): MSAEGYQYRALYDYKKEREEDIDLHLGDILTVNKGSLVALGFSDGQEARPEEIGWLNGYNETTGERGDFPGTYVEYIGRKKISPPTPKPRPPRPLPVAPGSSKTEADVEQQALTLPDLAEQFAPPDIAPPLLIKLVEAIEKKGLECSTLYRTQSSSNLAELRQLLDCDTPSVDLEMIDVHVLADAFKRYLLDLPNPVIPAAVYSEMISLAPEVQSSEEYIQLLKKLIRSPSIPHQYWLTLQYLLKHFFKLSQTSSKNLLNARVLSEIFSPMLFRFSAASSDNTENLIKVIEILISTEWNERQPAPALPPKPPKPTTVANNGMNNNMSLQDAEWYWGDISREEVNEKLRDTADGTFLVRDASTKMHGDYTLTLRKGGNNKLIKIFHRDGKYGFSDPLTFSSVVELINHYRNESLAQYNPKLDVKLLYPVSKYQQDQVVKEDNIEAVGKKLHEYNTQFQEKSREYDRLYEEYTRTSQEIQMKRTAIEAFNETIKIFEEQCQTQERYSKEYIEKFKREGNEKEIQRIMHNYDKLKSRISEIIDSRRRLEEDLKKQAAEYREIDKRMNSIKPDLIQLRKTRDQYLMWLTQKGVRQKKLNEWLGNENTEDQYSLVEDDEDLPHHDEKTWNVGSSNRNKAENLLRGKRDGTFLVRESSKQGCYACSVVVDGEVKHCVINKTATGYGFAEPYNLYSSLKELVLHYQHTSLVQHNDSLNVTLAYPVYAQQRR
From the text: (§2) Phosphatidyl Inositol Kinase Inhibition Assay
(§3) Inhibition of PI3 kinases was studied using the HTRF (homogeneous time-resolved fluorescence) assay which is a universal method for identifying and characterizing the phosphotransferase activity induced by any ATP/ADP dependent target. The formation of ADP is detected by a specific monoclonal antibody labeled with Eu^3+ cryptate, and directly correlates with the amount of phosphorylated substrate in kinase assays

PI3Kβ = PI3Kβ (Homo sapiens, UniProt P42338); experiment: as above; format: biochemical
From the text: as §2, §3

coxsackie B2 virus = experiment: Antiviral CPE assay in mammalian cell culture; format: cell-based; conditions: read-out: inhibition capacity (IC50) B2
coxsackie B1 virus = experiment: Antiviral CPE assay in mammalian cell culture; format: cell-based; conditions: read-out: inhibition capacity (IC50) Bl
coxsackie B3 virus = experiment: Antiviral CPE assay in mammalian cell culture; format: cell-based; conditions: Enterovirus B
polio virus Sabin 1 = experiment: organism not typed; format: cell-based; conditions: read-out: inhibition capacity (IC50) Polio 1
coxsackie B5virus = experiment: Antiviral CPE assay in mammalian cell culture; format: cell-based; conditions: read-out: inhibition capacity (IC50) B5
Enterovirus 30 = experiment: Antiviral CPE assay in mammalian cell culture; format: cell-based; conditions: read-out: inhibition capacity (IC50) EV30
[1] = B4, read-out: inhibition capacity (IC50) B4
[2] = EV68, read-out: inhibition capacity (IC50) EV68
[3] = B3, read-out: inhibition capacity (IC50) B3

## COc1ccc(-c2c(C)nn3c(NCc4ccncc4)nc(C)nc23)cc1OC [Example 6, 8-(3,4-dimethoxyphenyl)-2,7-dimethyl-N-(4-pyridylmethyl)pyrazolo[1,5-a][1,3,5]triazin-4-amine]
Enterovirus 71
  IC50: < 0.01 µM
Coxsackie B 4 virus; [1]
  IC50: < 0.01 µM
PI4KIIIβ
  IC50: 0.0013 µM
PI4KIIIα
  IC50: 3.2 µM
Enterovirus 6
  IC50: < 0.01 µM
Enterovirus 68; [2]
  IC50: < 0.01 µM
PI3Kα
  IC50: 7.3 µM
PI3Kβ
  IC50: > 10 µM
Coxsackie B2 virus
  IC50: < 0.01 µM
Coxsackie B1 virus
  IC50: < 0.01 µM
Coxsackie B3 virus; [3]
  IC50: < 0.01 µM
Polio virus Sabin 1
  IC50: < 0.01 µM
Coxsackie B5virus
  IC50: < 0.01 µM
Enterovirus 30; Enterovirus
  IC50: < 0.1 µM

## COc1ccc(-c2c(C)nn3c(NCc4ccc(S(N)(=O)=O)cc4)nc(C)nc23)cc1OC [Example 14, 4-[[[8-(3,4-dimethoxyphenyl)-2,7-dimethyl-pyrazolo[1,5-a][1,3,5]triazin-4-yl]amino]methyl]benzenesulfonamide]
Enterovirus 71
  IC50: < 0.01 µM
Coxsackie B 4 virus; [1]
  IC50: < 0.1 µM
PI4KIIIβ
  IC50: 0.0021 µM
PI4KIIIα
  IC50: 1.3 µM
Enterovirus 68; [2]
  IC50: < 0.01 µM
PI3Kα
  IC50: > 10 µM
PI3Kβ
  IC50: > 10 µM
Coxsackie B2 virus
  IC50: < 0.1 µM
Coxsackie B1 virus
  IC50: < 0.1 µM
Coxsackie B3 virus; [3]
  IC50: < 0.1 µM
Polio virus Sabin 1
  IC50: < 0.01 µM
Coxsackie B5virus
  IC50: < 0.01 µM
Enterovirus 30; Enterovirus
  IC50: < 0.01 µM

## COc1ccc(-c2c(C)nn3c(NCc4cccnc4)nc(C)nc23)cc1OC [Example 22, 8-(3,4-dimethoxyphenyl)-2,7-dimethyl-N-(3-pyridylmethyl)pyrazolo[1,5-a][1,3,5]triazin-4-amine]
Enterovirus 71
  IC50: < 0.1 µM
Coxsackie B 4 virus; [1]
  IC50: < 0.1 µM
Enterovirus 6
  IC50: < 0.1 µM
Enterovirus 68; [2]
  IC50: < 0.1 µM
Coxsackie B2 virus
  IC50: < 0.1 µM
Coxsackie B1 virus
  IC50: < 0.1 µM
Coxsackie B3 virus; [3]
  IC50: < 0.1 µM
Polio virus Sabin 1
  IC50: < 0.1 µM
Coxsackie B5virus
  IC50: < 0.1 µM
Enterovirus 30; Enterovirus
  IC50: < 0.1 µM

## COc1ccc(-c2c(C)nn3c(NCc4ccc(C)o4)nc(C)nc23)cc1OC [Example 23, 8-(3,4-dimethoxyphenyl)-2,7-dimethyl-N-[(5-methyl-2-furyl)methyl]pyrazolo[1,5-a][1,3,5]triazin-4-amine]
Enterovirus 71
  IC50: < 0.1 µM
Coxsackie B 4 virus; [1]
  IC50: < 0.01 µM
Enterovirus 6
  IC50: < 0.1 µM
Enterovirus 68; [2]
  IC50: < 0.1 µM
Coxsackie B2 virus
  IC50: < 0.1 µM
Coxsackie B1 virus
  IC50: < 0.01 µM
Coxsackie B3 virus; [3]
  IC50: < 0.1 µM
Polio virus Sabin 1
  IC50: < 0.01 µM
Coxsackie B5virus
  IC50: < 0.1 µM
Enterovirus 30; Enterovirus
  IC50: < 0.1 µM

## COC(=O)NS(=O)(=O)c1ccc(CNc2nc(C)nc3c(-c4ccc(OC)c(OC)c4)c(C)nn23)cc1 [Example 24, methyl N-[4-[[[8-(3,4-dimethoxyphenyl)-2,7-dimethyl-pyrazolo[1,5-a][1,3,5]triazin-4-yl]amino]methyl]phenyl]sulfonylcarbamate]
Enterovirus 71
  IC50: < 1 µM
Coxsackie B 4 virus; [1]
  IC50: < 1 µM
Enterovirus 6
  IC50: > 1 µM
Enterovirus 68; [2]
  IC50: < 1 µM
Coxsackie B2 virus
  IC50: < 1 µM
Coxsackie B1 virus
  IC50: > 1 µM
Coxsackie B3 virus; [3]
  IC50: > 1 µM
Polio virus Sabin 1
  IC50: < 1 µM
Coxsackie B5virus
  IC50: > 1 µM
Enterovirus 30; Enterovirus
  IC50: > 1 µM

## CCC(=O)NS(=O)(=O)c1ccc(CNc2nc(C)nc3c(-c4ccc(OC)c(OC)c4)c(C)nn23)cc1 [Example 25, N-[4-[[[8-(3,4-dimethoxyphenyl)-2,7-dimethyl-pyrazolo[1,5-a][1,3,5]triazin-4-yl]amino]methyl]phenyl]sulfonylpropanamide]
Enterovirus 71
  IC50: > 1 µM
Coxsackie B 4 virus; [1]
  IC50: > 1 µM
Enterovirus 6
  IC50: > 1 µM
Enterovirus 68; [2]
  IC50: < 1 µM
Coxsackie B2 virus
  IC50: > 1 µM
Coxsackie B1 virus
  IC50: > 1 µM
Coxsackie B3 virus; [3]
  IC50: > 1 µM
Polio virus Sabin 1
  IC50: > 1 µM
Coxsackie B5virus
  IC50: > 1 µM
Enterovirus 30; Enterovirus
  IC50: > 1 µM

## CNS(=O)(=O)c1ccc(CNc2nc(C)nc3c(-c4ccc(OC)c(OC)c4)c(C)nn23)cc1 [Example 26, N-methyl-4-[[[8-(3,4-dimethoxyphenyl)-2,7-dimethyl-pyrazolo[1,5-a][1,3,5]triazin-4-yl]amino]methyl]benzenesulfonamide]
Enterovirus 71
  IC50: < 1 µM
Coxsackie B 4 virus; [1]
  IC50: < 0.1 µM
Enterovirus 6
  IC50: < 1 µM
Enterovirus 68; [2]
  IC50: > 1 µM
Coxsackie B2 virus
  IC50: < 0.1 µM
Coxsackie B1 virus
  IC50: < 1 µM
Coxsackie B3 virus; [3]
  IC50: < 1 µM
Polio virus Sabin 1
  IC50: < 0.1 µM
Coxsackie B5virus
  IC50: < 1 µM
Enterovirus 30; Enterovirus
  IC50: < 1 µM

## COc1ccc(-c2c(C)nn3c(NCc4ccn(C)n4)nc(C)nc23)cc1OC [Example 27, 8-(3,4-dimethoxyphenyl)-2,7-dimethyl-N-[(1-methyl-1H-pyrazol-3-yl)methyl]pyrazolo[1,5-a][1,3,5]triazin-4-amine]
Enterovirus 71
  IC50: < 0.1 µM
Coxsackie B 4 virus; [1]
  IC50: < 0.01 µM
Enterovirus 6
  IC50: < 1 µM
Enterovirus 68; [2]
  IC50: < 0.01 µM
Coxsackie B2 virus
  IC50: < 0.01 µM
Coxsackie B1 virus
  IC50: < 0.01 µM
Coxsackie B3 virus; [3]
  IC50: < 0.1 µM
Polio virus Sabin 1
  IC50: < 0.01 µM
Coxsackie B5virus
  IC50: < 0.1 µM
Enterovirus 30; Enterovirus
  IC50: < 0.1 µM

## COc1ccc(-c2c(C)nn3c(NCc4cnco4)nc(C)nc23)cc1OC [Example 28, 8-(3,4-dimethoxyphenyl)-2,7-dimethyl-N-[(1,3-oxazol-5-yl)methyl]pyrazolo[1,5-a][1,3,5]triazin-4-amine]
Enterovirus 71
  IC50: < 0.1 µM
Coxsackie B 4 virus; [1]
  IC50: < 0.1 µM
Enterovirus 6
  IC50: < 0.1 µM
Enterovirus 68; [2]
  IC50: < 0.01 µM
Coxsackie B2 virus
  IC50: < 0.1 µM
Coxsackie B1 virus
  IC50: < 0.1 µM
Coxsackie B3 virus; [3]
  IC50: < 0.1 µM
Polio virus Sabin 1
  IC50: < 0.1 µM
Coxsackie B5virus
  IC50: < 1 µM
Enterovirus 30; Enterovirus
  IC50: > 1 µM

## COc1ccc(-c2c(C)nn3c(NCC4CCNCC4)nc(C)nc23)cc1OC [Example 29, 8-(3,4-dimethoxyphenyl)-2,7-dimethyl-N-[(piperidin-4-yl)methyl]pyrazolo[1,5-a][1,3,5]triazin-4-amine]
Enterovirus 71
  IC50: > 1 µM
Coxsackie B 4 virus; [1]
  IC50: > 1 µM
Enterovirus 6
  IC50: > 1 µM
Enterovirus 68; [2]
  IC50: > 1 µM
Coxsackie B2 virus
  IC50: > 1 µM
Coxsackie B1 virus
  IC50: > 1 µM
Coxsackie B3 virus; [3]
  IC50: > 1 µM
Polio virus Sabin 1
  IC50: > 1 µM
Coxsackie B5virus
  IC50: > 1 µM
Enterovirus 30; Enterovirus
  IC50: > 1 µM

## COc1ccc(-c2c(C)nn3c(NCc4cnc(C)nc4)nc(C)nc23)cc1OC [Example 30, 8-(3,4-dimethoxyphenyl)-2,7-dimethyl-N-[(2-methylpyrimidin-5-yl)methyl]pyrazolo[1,5-a][1,3,5]triazin-4-amine]
Enterovirus 71
  IC50: < 0.1 µM
Coxsackie B 4 virus; [1]
  IC50: < 0.1 µM
Enterovirus 6
  IC50: < 1 µM
Enterovirus 68; [2]
  IC50: < 0.1 µM
Coxsackie B2 virus
  IC50: < 1 µM
Coxsackie B1 virus
  IC50: < 1 µM
Coxsackie B3 virus; [3]
  IC50: < 1 µM
Polio virus Sabin 1
  IC50: < 0.1 µM
Coxsackie B5virus
  IC50: < 1 µM
Enterovirus 30; Enterovirus
  IC50: < 0.1 µM

## COc1ccc(-c2c(C)nn3c(NCc4ccnnc4)nc(C)nc23)cc1OC [Example 31, 8-(3,4-dimethoxyphenyl)-2,7-dimethyl-N-[(pyridazin-4-yl)methyl]pyrazolo[1,5-a][1,3,5]triazin-4-amine]
Enterovirus 71
  IC50: < 0.1 µM
Coxsackie B 4 virus; [1]
  IC50: < 0.01 µM
Enterovirus 6
  IC50: < 1 µM
Enterovirus 68; [2]
  IC50: < 0.1 µM
Coxsackie B2 virus
  IC50: < 1 µM
Coxsackie B1 virus
  IC50: < 1 µM
Coxsackie B3 virus; [3]
  IC50: < 1 µM
Polio virus Sabin 1
  IC50: < 1 µM
Coxsackie B5virus
  IC50: < 1 µM
Enterovirus 30; Enterovirus
  IC50: > 1 µM

## COc1ccc(-c2c(C)nn3c(NCc4ccc(C)nc4)nc(C)nc23)cc1OC [Example 32, 8-(3,4-dimethoxyphenyl)-2,7-dimethyl-N-[(6-methylpyridin-3-yl)methyl]pyrazolo[1,5-a][1,3,5]triazin-4-amine]
Enterovirus 71
  IC50: < 0.1 µM
Coxsackie B 4 virus; prevention of viral CPE, mammalian cell culture, coxsackie B4 virus, read-out: inhibition capacity (IC50) B4
  IC50: < 0.1 µM
Enterovirus 6
  IC50: < 0.1 µM
Enterovirus 68; EV68, prevention of viral CPE, mammalian cell culture, Enterovirus 68, read-out: inhibition capacity (IC50) EV68
  IC50: < 0.1 µM
Coxsackie B2 virus; prevention of viral CPE, mammalian cell culture, coxsackie B2 virus
  IC50: < 0.1 µM
Coxsackie B1 virus; prevention of viral CPE, mammalian cell culture, coxsackie B1 virus
  IC50: < 0.1 µM
Coxsackie B3 virus; prevention of viral CPE, mammalian cell culture, coxsackie B3 virus, read-out: inhibition capacity (IC50) B3
  IC50: < 0.01 µM
Polio virus Sabin 1
  IC50: < 0.1 µM
Coxsackie B5virus; prevention of viral CPE, mammalian cell culture, coxsackie B5 virus
  IC50: < 0.1 µM
Enterovirus 30; prevention of viral CPE, mammalian cell culture, Enterovirus 30
  IC50: < 0.01 µM
